Experimental data as given in patent US6495675B1, “Pharmaceutical composition for treating or preventing influenza, and novel capped oligonucleotide” (Chiba Institute of Technology, priority 1997, dated 2002).
Like-named read-outs stand apart in the source and are kept apart here. Strand notation (5' to 3'): a small letter for the sugar, then the base; units joined by * are phosphorothioate-linked, units joined directly phosphodiester-linked; [ ] holds rarer units or linkages, { } end groups; capitals alone tell only the bases. {m7GpppGm} = cap: 7-methylguanosine 5'-5' triphosphate-linked to 2'-O-methylguanosine; {m7GpppG} = cap: 7-methylguanosine 5'-5' triphosphate-linked to guanosine; r = 2'-OH (RNA)

Tested on: CAT protein expression in 76 cells expressing RNA polymerases (PB1, PB2, and PA) and NP protein of influenza A virus (A/PR/8/34)
Type: cell-based

Question: With “m^7GpppGmAAUACUC ({m7GpppGm}-rArArUrArCrUrC) [Gm8]” as the substance, how does the “inhibition of CAT protein expression (in words)” value (shortened to “inhibition”) (concentration not specified) read?
Answer: significant inhibition

Question: With “m^7GpppGmAAUACUCAAACU ({m7GpppGm}-rArArUrArCrUrCrArArArCrU) [Gm13, reference compound]” as the substance, how does the “inhibition” value (concentration not specified) read?
Answer: weak inhibition

Question: What about the “inhibition” value (high dose (0.3 μM)) of the same substance?
Answer: little inhibition

Question: “m^7GpppG AAUACUC ({m7GpppG}-rArArUrArCrUrC) [G8]” was tested. Which “inhibition” value (concentration not specified) did it give?
Answer: significant inhibition
